Source: ChEMBL document CHEMBL1201862, “PubChem BioAssay data set” (2004)
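Test compounds were applied to cells in 96-well plates for 48 hours at 5 doses. GI50 = concentration required for 50% inhibition of growth.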 Activity calls are given as the source filed them. Rule as the data show it: active = GI50 up to about 1.1 µM and inactive = higher.

Legend:
Assay in all cases: NCI tumour cell line growth inhibition, 48 h
ACHN = system: ACHN
BT-549 = system: BT-549
EKVX = system: EKVX
HOP-62 = system: HOP-62
MOLT-4 = system: MOLT-4
NCI-H522 = system: NCI-H522
NCI/ADR-RES = system: NCI/ADR-RES
OVCAR-3 = system: OVCAR-3
OVCAR-4 = system: OVCAR-4
OVCAR-5 = system: OVCAR-5
SF-268 = system: SF-268
SF-295 = system: SF-295
SF-539 = system: SF-539
SK-MEL-28 = system: SK-MEL-28
SK-MEL-5 = system: SK-MEL-5
SW-620 = system: SW-620
T47D = system: T47D
U-251 = system: U-251
UACC-62 = system: UACC-62
UO-31 = system: UO-31

| SMILES | GI50 (ACHN) | GI50 (BT-549) | GI50 (EKVX) | GI50 (HOP-62) | GI50 (MOLT-4) | GI50 (NCI-H522) | GI50 (NCI/ADR-RES) | GI50 (OVCAR-3) | GI50 (OVCAR-4) | GI50 (OVCAR-5) | GI50 (SF-268) | GI50 (SF-295) | GI50 (SF-539) | GI50 (SK-MEL-28) | GI50 (SK-MEL-5) | GI50 (SW-620) | GI50 (T47D) | GI50 (U-251) | GI50 (UACC-62) | GI50 (UO-31) |
| --- | --- | --- | --- | --- | --- | --- | --- | --- | --- | --- | --- | --- | --- | --- | --- | --- | --- | --- | --- | --- |
| C=CCOC1(CC=C)C(=O)OC2C(O)COC21O (stereo not given) | > 100 µM (inactive) | > 100 µM (inactive) | > 100 µM (inactive) | > 100 µM (inactive) | > 100 µM (inactive) | > 100 µM (inactive) | > 100 µM (inactive) | > 100 µM (inactive) | > 100 µM (inactive) | > 100 µM (inactive) | > 100 µM (inactive) | > 100 µM (inactive) | > 100 µM (inactive) | > 100 µM (inactive) | > 100 µM (inactive) | > 100 µM (inactive) | > 100 µM (inactive) | > 100 µM (inactive) | > 100 µM (inactive) | > 100 µM (inactive) |
| COc1ccc(/C=C2\C[C@H]3[C@@H]4CCC5=C[C@@H](N6CCCC6)CC[C@]5(C)[C@H]4CC[C@]3(C)[C@H]2O)cc1 | 3.29 µM (inactive) | 5.85 µM (inactive) | 3.81 µM (inactive) | 1.66 µM (inactive) | 2.86 µM (inactive) | 2.53 µM (inactive) | 4.39 µM (inactive) | 2.64 µM (inactive) | 3.59 µM (inactive) | 4.81 µM (inactive) | 2.92 µM (inactive) | 2.3 µM (inactive) | 2.15 µM (inactive) | 1.87 µM (inactive) | 1.55 µM (inactive) | 2.3 µM (inactive) | 4.56 µM (inactive) | 2.77 µM (inactive) | 1.78 µM (inactive) | 1.72 µM (inactive) |
| CC(C)CCC[C@@H](C)[C@H]1CC[C@H]2[C@@H]3CC[C@H]4C[C@@H](CCC=C(c5cc(Cl)c(O)c(C(=O)O)c5)c5cc(Cl)c(O)c(C(=O)O)c5)CC[C@]4(C)[C@H]3CC[C@]12C | > 100 µM (inactive) | > 100 µM (inactive) | > 100 µM (inactive) | > 100 µM (inactive) | > 100 µM (inactive) | > 100 µM (inactive) | > 100 µM (inactive) | > 100 µM (inactive) | > 100 µM (inactive) | > 100 µM (inactive) | > 100 µM (inactive) | > 100 µM (inactive) | > 100 µM (inactive) | > 100 µM (inactive) | > 100 µM (inactive) | > 100 µM (inactive) | > 100 µM (inactive) | > 100 µM (inactive) | > 100 µM (inactive) | > 100 µM (inactive) |
| CC(=O)n1nc(-c2[nH]c(C)c(-c3nn(C(C)=O)c(=S)o3)c2C)oc1=S | > 100 µM (inactive) | > 100 µM (inactive) | > 100 µM (inactive) | > 100 µM (inactive) | 6.89 µM (inactive) | > 85.7 µM (inactive) | > 100 µM (inactive) | > 100 µM (inactive) | > 100 µM (inactive) | > 100 µM (inactive) | > 100 µM (inactive) | > 100 µM (inactive) | 81.7 µM (inactive) | > 100 µM (inactive) | > 100 µM (inactive) | > 100 µM (inactive) | > 100 µM (inactive) | > 100 µM (inactive) | > 100 µM (inactive) | > 100 µM (inactive) |
| O=C1Nc2ccccc2/C1=C/c1ccccc1 | 30.4 µM (inactive) | 16.4 µM (inactive) | 13.8 µM (inactive) | 18 µM (inactive) | 15.6 µM (inactive) | 15.8 µM (inactive) | 22.8 µM (inactive) | 16.7 µM (inactive) | 23.6 µM (inactive) | 18.5 µM (inactive) | 15.6 µM (inactive) | 17.5 µM (inactive) | 15.4 µM (inactive) | 20.8 µM (inactive) | 13.3 µM (inactive) | 25.2 µM (inactive) | 12.3 µM (inactive) | 15 µM (inactive) | 13.9 µM (inactive) | 12.6 µM (inactive) |
| COc1ccc2[nH]c(S(=O)(=O)N3CC(CCl)c4ccc(N)cc43)cc2c1 (stereo not given) | 8.91 µM (inactive) | 6.55 µM (inactive) | 1.85 µM (inactive) | 0.475 µM (active) | 0.0826 µM (active) | < 0.01 µM (active) | 0.0624 µM (active) | 0.022 µM (active) | 2.16 µM (inactive) | 10 µM (inactive) | 0.0685 µM (active) | 0.0775 µM (active) | 0.0478 µM (active) | 13 µM (inactive) | < 0.0157 µM (active) | 0.0358 µM (active) | 34.8 µM (inactive) | 0.4 µM (active) | 0.0773 µM (active) | 0.0403 µM (active) |
| C[C@H]1CC[C@H](NC(=O)N(CCCl)N=O)CC1 | 49.4 µM (inactive) | 24.7 µM (inactive) | 78.3 µM (inactive) | 48.3 µM (inactive) | 18.3 µM (inactive) | 40 µM (inactive) | 47.1 µM (inactive) | 42.1 µM (inactive) | 31.6 µM (inactive) | 55.7 µM (inactive) | 22.1 µM (inactive) | 13.4 µM (inactive) | 27.1 µM (inactive) | 46.2 µM (inactive) | 40.4 µM (inactive) | 31.3 µM (inactive) | 29.7 µM (inactive) | 26.7 µM (inactive) | 14.3 µM (inactive) | 49.9 µM (inactive) |
